{
  "source": "patent US12285524B2",
  "about": "“Sustained-release pharmaceutical compositions comprising an antipsychotic drug and uses thereof” (priority 2018, dated 2025)",
  "experiment": "in vivo",
  "conditions": "female, Sprague-Dawley, rat, sc, 10 mg/kg",
  "method": "The rats were housed in a holding room which operated on a 12-hr light/12-hr dark circadian cycle with free access to water and food.\nPlasma samples were obtained by centrifugation, kept frozen at −80° C. and analyzed using a noncompartmental analysis model in PKSolver (Comput Methods Programs Biomed. 2010; 99(3):306-314).",
  "data": [
    {"smiles": "Cc1nc2n(c(=O)c1CCN1CCC(c3noc4cc(F)ccc34)CC1)CCCC2", "note": "[Risperidone, risperidone]", "values": [
      {"measurement": "AUC(0-inf)", "result": 13300, "unit": "ng·h/mL"},
      {"measurement": "AUC(0-t)", "result": 13200, "unit": "ng·h/mL"},
      {"measurement": "Cmax", "result": 4510, "unit": "ng/mL"},
      {"measurement": "drug released, indicated by AUC0-t", "setting": "8 h", "result": 100, "unit": "%"}
    ]}
  ]
}
